Test results from paper PMC11217349, “Development of Nurr1 agonists from amodiaquine by scaffold hopping and fragment growing” (Communications Chemistry, 2024).
≈ marks a conversion by molar mass, not a printed value. Where “and” joins values, the source holds several entries; their conditions need not be identical. Equal entries are not always repeated. Entries after “also recorded” stand apart in the source; their conditions may differ.

Key:
[1] = biological target: T1, human full-length Nurr1 homodimer (NurRE) (Homo sapiens, UniProt P43354); assay: Full-length Nurr1 reporter gene assay (NurRE); type: cell-based; conditions: full-length human Nurr1 homodimer, HEK293T
T1 construct: The full-length human nuclear receptor Nurr1 (pcDNA3.1-hNurr1-NE; Addgene plasmid #102363); host or cells: HEK293T
T1 sequence (P43354 whole entry): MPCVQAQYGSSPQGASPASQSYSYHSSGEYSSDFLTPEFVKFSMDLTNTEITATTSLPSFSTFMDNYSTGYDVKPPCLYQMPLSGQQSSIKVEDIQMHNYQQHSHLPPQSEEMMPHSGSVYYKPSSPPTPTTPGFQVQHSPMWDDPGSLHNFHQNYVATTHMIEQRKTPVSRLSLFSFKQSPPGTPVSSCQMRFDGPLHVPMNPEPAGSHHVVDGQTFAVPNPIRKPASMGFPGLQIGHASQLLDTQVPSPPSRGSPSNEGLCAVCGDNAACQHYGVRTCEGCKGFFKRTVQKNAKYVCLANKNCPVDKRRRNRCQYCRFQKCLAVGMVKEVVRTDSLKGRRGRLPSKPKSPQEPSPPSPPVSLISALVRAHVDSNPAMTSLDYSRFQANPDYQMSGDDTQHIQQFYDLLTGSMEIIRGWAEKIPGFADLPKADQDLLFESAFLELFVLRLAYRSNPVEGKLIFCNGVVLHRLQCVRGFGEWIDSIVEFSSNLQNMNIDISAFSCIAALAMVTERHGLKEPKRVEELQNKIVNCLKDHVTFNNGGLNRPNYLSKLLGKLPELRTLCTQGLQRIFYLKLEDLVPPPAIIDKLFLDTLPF
Excerpt: (§1) Activation of full-length human Nurr1 was studied in transiently transfected HEK293T cells using the reporter plasmids pFR-Luc-NBRE[14], pFR-Luc-POMC[14] or pFR-Luc-DR5[14] each containing one copy of the respective human Nurr1 response element NBRE Nl3, NurRE, or DR5. The full-length human nuclear receptor Nurr1 (pcDNA3.1-hNurr1-NE; Addgene plasmid #102363) and, for DR5, RXRα (pSG5-hRXR)[57] were overexpressed. pRL-SV40 (Promega) was used for the normalization of transfection efficacy and to observe test compound toxicity. […] After 24 h, the medium was changed to Opti-MEM without supplements, and cells were transiently transfected using Lipofectamine LTX reagent (Invitrogen) according to the manufacturer’s protocol. Five hours after transfection, cells were incubated with the test compounds in Opti-MEM supplemented with penicillin (100 U/mL), streptomycin (100 μg/mL) and 0.1% DMSO for 16 h before luciferase activity was measured using the Dual-Glo Luciferase Assay System (Promega) according to the manufacturer’s protocol on a Tecan Spark luminometer (Tecan Deutschland GmbH). Firefly luminescence was divided by Renilla luminescence and multiplied by 1000 resulting in relative light units (RLU) to normalize for transfection efficiency and cell growth. Fold activation was obtained by dividing the mean RLU of the test compound by the mean RLU of the untreated control. All samples were tested in at least three biologically independent experiments in duplicates. For dose-response curve fitting and calculation of EC50 values, the equation “[Agonist] vs. response -- Variable slope (four parameters)” was used in GraphPad Prism (version 7.00, GraphPad Software).

[2] = test system: human midbrain organoids from wildtype iPSC (isogenic control); assay: Midbrain organoid model, isogenic control; type: cell-based; conditions: immunostaining, fixed area
NOR-1 = biological target: T2, NOR-1 (Homo sapiens, UniProt Q92570); assay: Gal4-NOR-1 hybrid reporter gene assay; type: cell-based; conditions: HEK293T
T2 construct: chimeric receptors composed of the Gal4-DBD and the hinge region and LBD; expressed in transfected cells; host or cells: HEK293T
T2 sequence (Q92570 394-623 limits assumed): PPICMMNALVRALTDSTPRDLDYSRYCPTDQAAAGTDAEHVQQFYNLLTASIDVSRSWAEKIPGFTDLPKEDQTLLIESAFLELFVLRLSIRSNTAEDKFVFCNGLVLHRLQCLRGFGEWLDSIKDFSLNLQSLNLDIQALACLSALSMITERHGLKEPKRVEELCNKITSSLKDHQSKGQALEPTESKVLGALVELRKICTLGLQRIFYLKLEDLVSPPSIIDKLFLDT
Procedure: (§2) Nurr1 modulation was determined in a Gal4 hybrid reporter gene assay in HEK293T cells (German Collection of Microorganisms and Cell Culture GmbH, DSMZ) using pFR-Luc (Stratagene, La Jolla, CA, USA; reporter), pRL-SV40 (Promega, Madison, WI, USA; internal control) and pFA-CMV-hNurr1-LBD[14], coding for the hinge region and ligand binding domain of the canonical isoform of human Nurr1. […] After 24 h, the medium was changed to Opti-MEM without supplements, and cells were transiently transfected using Lipofectamine LTX reagent (Invitrogen, Carlsbad, CA, USA) according to the manufacturer’s protocol. Five hours after transfection, cells were incubated with the test compounds in Opti-MEM supplemented with penicillin (100 U/mL), streptomycin (100 μg/mL), and 0.1% DMSO for 16 h before luciferase activity was measured using the Dual-Glo Luciferase Assay System (Promega) according to the manufacturer’s protocol on a Tecan Spark luminometer (Tecan Deutschland GmbH, Crailsheim, Germany). Firefly luminescence was divided by Renilla luminescence and multiplied by 1000 resulting in relative light units (RLU) to normalize for transfection efficiency and cell growth. Fold activation was obtained by dividing the mean RLU of the test compound by the mean RLU of the untreated control. All samples were tested in at least three biologically independent experiments in duplicates. For dose-response curve fitting and calculation of EC50 values, the equation “[Agonist] vs. response -- Variable slope (four parameters)” was used in GraphPad Prism (version 7.00, GraphPad Software, La Jolla, CA, USA). Selectivity profiling was performed with identical procedures using pFA-CMV-Nur77-LBD[14], pFA-CMV-NOR-1-LBD[14], pFA-CMV-THRα-LBD[51], pFA-CMV-RARα-LBD[52], pFA-CMV-PPARα-LBD[53], pFA-CMV-PPARγ-LBD[53], pFA-CMV-PPARδ-LBD[53], pFA-CMV-LXRα-LBD[54], pFA-CMV-FXR-LBD[55] and pFA-CMV-hRXRα-LBD[56].

[3] = biological target: T3, human Nurr1 (hinge region and ligand binding domain) (Homo sapiens, UniProt P43354); assay: Gal4-Nurr1 hybrid reporter gene assay; type: cell-based
T3 construct: expressed in transfected cells; host or cells: HEK293T
T3 sequence (P43354 360-595 limits assumed): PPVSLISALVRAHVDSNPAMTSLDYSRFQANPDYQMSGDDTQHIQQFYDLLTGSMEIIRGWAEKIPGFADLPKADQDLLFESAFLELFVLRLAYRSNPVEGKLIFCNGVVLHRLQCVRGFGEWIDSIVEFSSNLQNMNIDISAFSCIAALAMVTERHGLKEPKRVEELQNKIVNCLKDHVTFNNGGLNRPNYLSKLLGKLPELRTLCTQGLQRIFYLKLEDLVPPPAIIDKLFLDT

Nur77 = biological target: T4, Nur77 (Homo sapiens, UniProt P22736); assay: Gal4-Nur77 hybrid reporter gene assay; type: cell-based; conditions: HEK293T
T4 construct: chimeric receptors composed of the Gal4-DBD and the hinge region and LBD; expressed in transfected cells; host or cells: HEK293T
T4 sequence (P22736 360-595 limits assumed): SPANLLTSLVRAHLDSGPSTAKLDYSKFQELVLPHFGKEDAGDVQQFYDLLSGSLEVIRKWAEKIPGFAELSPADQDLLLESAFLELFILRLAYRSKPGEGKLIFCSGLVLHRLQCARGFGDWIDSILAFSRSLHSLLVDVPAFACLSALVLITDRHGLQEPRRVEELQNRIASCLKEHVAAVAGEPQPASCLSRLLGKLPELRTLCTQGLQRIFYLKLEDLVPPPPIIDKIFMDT
Procedure: as §2

Aqueous solubility = type: physicochemical; conditions: water, 25 °C, read-out: aq. solubility
Procedure: The mixture was agitated in a VWR Thermal Shake lite (VWR International GmbH, Darmstadt, Germany) for 24 h at 600 rpm and a constant temperature of 25 °C. The supersaturated mixtures were subsequently centrifuged at 23.300 rpm for 15 min (25 °C). Part of the supernatant was taken off for quantification by UV absorbance at 312 nm with external calibration. The external calibration samples contained 1% DMSO and the test samples were spiked with DMSO to 1% concentration right before the measurement. Absorbance was measured with a Tecan Spark luminometer (Tecan Deutschland GmbH, Crailsheim, Germany). The solubility test was repeated in three independent experiments.

[4] = biological target: T5, human full-length Nurr1 monomer (NBRE) (Homo sapiens, UniProt P43354); assay: Full-length Nurr1 reporter gene assay (NBRE); type: cell-based; conditions: full-length human Nurr1 monomer, HEK293T
T5 construct: The full-length human nuclear receptor Nurr1 (pcDNA3.1-hNurr1-NE; Addgene plasmid #102363); host or cells: HEK293T
T5 sequence (P43354 whole entry): as the sequence (P43354 whole entry) above
Excerpt: as §1

| Structure (SMILES) | EC50(NurRE) [1] | TH positive cells [2] | EC50(NOR-1) (NOR-1) | highest non-toxic concentration ([3]; Gal4-Nurr1 hybrid reporter gene assay, HEK293T) | EC50(Nurr1) ([3]; Gal4-Nurr1 hybrid reporter, HEK293T, mean ± SD, n ≥ 3) | fold less active than 36 as Nurr1 modulator ([3]; no agonism at 10 µM vs EC50 of 36) | EC50(Nur77) (Nur77) | solubility at 24 h (Aqueous solubility) [µg/mL] | EC50(NBRE) [4] | EC50 [1] [nM] | EC50 (NOR-1) [nM] | EC50 ([3]; Gal4-Nurr1 hybrid reporter, HEK293T, mean ± SD, n ≥ 3, read-out: EC50(Nurr1)) [nM] | EC50 (Nur77) [nM] |
| --- | --- | --- | --- | --- | --- | --- | --- | --- | --- | --- | --- | --- | --- |
| Cc1nc2c(Cl)cccn2c1NC(=O)c1ccc(-c2ccccc2)[nH]1 [Compound 29, N-(8-Chloro-2-methylimidazo[1,2-a]pyridin-3-yl)-5-phenyl-1H-pyrrole-2-carboxamide] | no activation (10 µM) | 44 and 37 and 31 and 38 | no activation (10 µM) | inactive (10 µM^b) | inactive (10 µM^b); also recorded: no activation (10 µM) | at least 100 fold | no activation (10 µM) | 4.1 (≈ 11.7 µM) | no activation (10 µM) | – | – | – | – |
| Cc1nc2c(Cl)cccn2c1NC(=O)c1ccc(-c2ccc(N(C)C)cc2)o1 [Compound 36, N-(8-Chloro-2-methylimidazo[1,2-a]pyridin-3-yl)-5-(4-(dimethylamino)phenyl)furan-2-carboxamide] | – | 47 and 50 and 45 and 41 | – | – | – | – | – | 6.8 (≈ 17.2 µM) | no activation (1 µM) | 94 ± 3 | 110 ± 30 | 90 ± 5 | 330 ± 40 |
